Source: paper PMC9254247, “Dual-sensitive antibacterial peptide nanoparticles prevent dental caries” (Theranostics, 2022)
No end group written: not given here.

How the values were obtained:
[1] = test system: S. mutans UA159 biofilms on sHA; test: Biofilm model on saliva-coated hydroxyapatite (sHA); assay type: cell-based, Streptococcus mutans; conditions: 55 µM; pH 4.5; 10 min, total of 5 days; n = 3
From the text: Treatment and quantitative analysis of b iofilm model on sHA. S.mutans biofilms also formed on sHA blocks (surface area=1 ± 0.2 cm2) in 24-well plates. According to the literature10, before the experiment, hydroxyapatite (diameter, 1.25 cm; Kunshan Chinese technology new materials CO, LTD) was coated with filter-sterilized clarified human whole saliva. The biofilm formation, treatment regimen, and quantitative analysis were roughly similar to the biofilms formed on circular glass slides as described above. The differences are that the biofilms should be treated after 24 hours of formation and biofilms were treated every other day for a total of 5 days. In addition, after treatment for 5 days, the sHA blocks were washed with PBS (pH 7.0) and then fixed with 2.5 % glutaraldehyde for 10 min. After being washed another 3 times with PBS (pH 7.0) to remove the remaining glutaraldehyde, the sHA blocks were stained using 0.5% crystal violet for 20 min. The fully washed sHA blocks were observedunder a light microscope (Insein Li Fung1080P 60FPS, China).
Treatment and quantitative analysis of human derived ex vivo biofilm s. […] The total cultivable bacteria for ex vivo biofilm formation was measured to ensure the same density of added bacteria (~2× 108). […] The quantitative analysis was measured by counting the CFU of alive bacteria with agar plating after incubation for 48 h at 37 °C. […]

[2] = test system: pepsin; test: Degradation by pepsin (RP-HPLC); assay type: in vitro ADME; conditions: peptide 100 µg/mL, pepsin 10 µg/mL, Tris buffer pH 4.0, 37 °C, 5 min, MALDI-TOF MS
Description: Figure 7 The biosafety of pHly-1 NPs to normal oral and gastric organoids. […] (B and C) The representative gastric organoid images (B) and oral organoid images (C) after 500 µM pHly-1 NPs or CHX treatment. (D and E) the viability of gastric (D) and oral (E) organoids after treatment with pHly-1 NPs or CHX was assessed by CellTiter-Blue cell viability assay. Scale bar, 100 µm. Each experiment was repeated 3 times. (F) RP-HPLC analysis of pHly-1 NPs degradation by pepsin. pHly-1 NPs (100 µg/mL) was incubated with pepsin (10 µg/mL) in Tris buffer (pH 4.0) at 37 °C for 5 min and submitted to RP-HPLC analysis. The HPLC fractions were analyzed by MALDI-TOF MS. The black arrow represents the intact peptide of pHly-1 NPs and the molecular weight is 2865.1 Da (Figure S14). After 5 min of pepsin hydrolysis, the molecular weight of the mainly peptide fragment is 1650.6 Da (Figure S14). All of the data are represented as average ± s.d.

Row | Compound | biofilm on sHA, viable cell count (CFU) [1] | degradation by pepsin [2]
1 | [H]/N=C(\N/C(=N/[H])NCCCCCCNC(=N)NC(=N)Nc1ccc(Cl)cc1)Nc1ccc(Cl)cc1 [CHX, chlorhexidine] | apparent antibiofilm efficacy | 
2 | KIWFHAMHIIAHFIAHQHLHQHL-NH2 [pHly-1 NPs] |  | rapidly degraded
